Measurements taken from patent publication US6372446B1, “Method of selectively determining a fungal biomass” (Mycometer ApS, priority 1997, dated 2002).

Legend:
[1] = tested on: Aureobasidium pullulans (QM 3092); assay: Screening of fungi for enzyme activity with 4-methylumbelliferone-labelled substrates; format: cell-based; details: substrate 10 μM, 25° C., pH 5; for Enzyme activity: amount of released 4-methylumbelliferone during 5 hours of incubation: Aureobasidium pulluians (QM 3092), vegetable juice medium; for Enzyme activity: amount of released 4-methylumbelliferone: Aureobasidium pullulans (QM 3092), mineral medium
[2] = tested on: Paecilomyces farinosus (AGM 5); assay: as above; format: cell-based; details: substrate 10 μM, 25° C., pH 5; for Enzyme activity: amount of released 4-methylumbelliferone: mineral medium; for Enzyme activity: amount of released 4-methylumbelliferone during 5 hours of incubation: vegetable juice medium
[3] = tested on: Cladosporium herbarum (AGM 8); assay: as above; format: cell-based; details: substrate 10 μM, 25° C., pH 5; for Enzyme activity: amount of released 4-methylumbelliferone: mineral medium; for Enzyme activity: amount of released 4-methylumbelliferone during 5 hours of incubation: vegetable juice medium
[4] = tested on: Penicillium commune (IBT 13713); assay: as above; format: cell-based; details: substrate 10 μM, 25° C., pH 5; for Enzyme activity: amount of released 4-methylumbelliferone: mineral medium; for Enzyme activity: amount of released 4-methylumbelliferone during 5 hours of incubation: vegetable juice medium
[5] = tested on: Penicillium solitum (IBT 13771); assay: as above; format: cell-based; details: substrate 10 μM, 25° C., pH 5; for Enzyme activity: amount of released 4-methylumbelliferone: mineral medium; for Enzyme activity: amount of released 4-methylumbelliferone during 5 hours of incubation: vegetable juice medium
[6] = tested on: Aspergillus oryzae (AGM 11); assay: as above; format: cell-based; details: substrate 10 μM, 25° C., pH 5; for Enzyme activity: amount of released 4-methylumbelliferone: mineral medium; for Enzyme activity: amount of released 4-methylumbelliferone during 5 hours of incubation: vegetable juice medium
[7] = tested on: Mucor racemosus (AAS 310); assay: as above; format: cell-based; details: substrate 10 μM, 25° C., pH 5; for Enzyme activity: amount of released 4-methylumbelliferone: mineral medium; for Enzyme activity: amount of released 4-methylumbelliferone during 5 hours of incubation: vegetable juice medium
[8] = tested on: Ascobolus crenulatus (AAS 1); assay: as above; format: cell-based; details: substrate 10 μM, 25° C., pH 5; for Enzyme activity: amount of released 4-methylumbelliferone: mineral medium; for Enzyme activity: amount of released 4-methylumbelliferone during 5 hours of incubation: vegetable juice medium
[9] = tested on: Trametes versicolor (AGM 24); assay: as above; format: cell-based; details: substrate 10 μM, 25° C., pH 5; for Enzyme activity: amount of released 4-methylumbelliferone: mineral medium; for Enzyme activity: amount of released 4-methylumbelliferone during 5 hours of incubation: vegetable juice medium
[10] = tested on: Rhizomucor pusillus (AAS 300); assay: as above; format: cell-based; details: substrate 10 μM, 25° C., pH 5; for Enzyme activity: amount of released 4-methylumbelliferone: mineral medium; for Enzyme activity: amount of released 4-methylumbelliferone during 5 hours of incubation: vegetable juice medium
[11] = tested on: Schizophyllum commune (AGM 25); assay: as above; format: cell-based; details: substrate 10 μM, 25° C., pH 5; for Enzyme activity: amount of released 4-methylumbelliferone: mineral medium; for Enzyme activity: amount of released 4-methylumbelliferone during 5 hours of incubation: vegetable juice medium
[12] = tested on: Sodaria fimicola (AAS 17); assay: as above; format: cell-based; details: substrate 10 μM, 25° C., pH 5; for Enzyme activity: amount of released 4-methylumbelliferone: mineral medium; for Enzyme activity: amount of released 4-methylumbelliferone during 5 hours of incubation: vegetable juice medium
Eurotium sp. (AAS 36) = assay: as above; format: cell-based; details: substrate 10 μM, 25° C., pH 5; for Enzyme activity: amount of released 4-methylumbelliferone: mineral medium; for Enzyme activity: amount of released 4-methylumbelliferone during 5 hours of incubation: vegetable juice medium
[13] = tested on: Aspergillus versicolor (IBT 13738); assay: as above; format: cell-based; details: substrate 10 μM, 25° C., pH 5; for Enzyme activity: amount of released 4-methylumbelliferone: mineral medium; for Enzyme activity: amount of released 4-methylumbelliferone during 5 hours of incubation: vegetable juice medium
human hexosaminidase = assay: Cleavage of substrate in human blood and plasma samples; format: biochemical
Source text: The diagnostic method detects fungal β-N-acetylhexosaminidase activity in human plasma. […] However, it was discovered that this human hexosaminidase activity can be eliminated by a pre-treatment step comprising precipitation e.g. by adding ammonium sulphate (70% saturation) to the human plasma samples. […] In the samples containing C. albicans culture fluid more than 75% of the fungal β-N-acetylhexosaminidase activity remained after precipitation step to eliminate interfering human enzyme activity. […] After incubation, 300 μl Tris buffer (2.5 M) was added to the mixture to increase the pH to above 9 and the fluorescence measured. This procedure was tested on plasma from different control subjects with no known previous fungal infections. Culture fluids from cultivation of C. albicans or of A. fumigatus containing β-N-acetylhexosaminidase activity were added to the plasma samples. […] After the incubation, Tris buffer was added and the fluorescence formed was measured against the control samples. The presence of fungal β-N-acetylhexosaminidase activity was detected and the fluorescence was proportional to the amount of fungal β-N-acetylhexosaminidase added.

all fungi tested = assay: Screening of a diverse selection of fungi for ability to degrade 11 substrates (summary); format: cell-based; details: mineral medium and vegetable juice medium
Procedure: A number of fungi representing different taxonomic groupings were screened for enzyme activity. The fungi were grown for in 24 well plates (Nunclon Multidish, Life Technologies A/S) (well volume 3.4 ml) containing 1.5 ml of agarized growth medium. After a growth period of 10 days at 25° C., 1.5 ml citrate-phosphat buffer (pH 5) were added to the wells and one of 11 enzyme substrates were then added to each well and incubated for 5 hours at 25° C. after which the fluorescence of each well was measured. For each fungus two wells were incubated with each enzyme substrate. All substrates were used in a final concentration of 10 μM. The substrate only and the organism plus the agarized medium were included as controls. […] The fungi subjected to the assaying procedure were all obtained from the culture collection of the Department of General Microbiology at the University of Copenhagen, Denmark.

Enzyme activity: amount of released 4-methylumbelliferone during 5 hours of incubation [1] | Enzyme activity: amount of released 4-methylumbelliferone [1] | Enzyme activity: amount of released 4-methylumbelliferone [2] | Enzyme activity: amount of released 4-methylumbelliferone during 5 hours of incubation [2] | Enzyme activity: amount of released 4-methylumbelliferone [3] | Enzyme activity: amount of released 4-methylumbelliferone during 5 hours of incubation [3] | Enzyme activity: amount of released 4-methylumbelliferone [4] | Enzyme activity: amount of released 4-methylumbelliferone during 5 hours of incubation [4] | Enzyme activity: amount of released 4-methylumbelliferone [5] | Enzyme activity: amount of released 4-methylumbelliferone during 5 hours of incubation [5] | Enzyme activity: amount of released 4-methylumbelliferone [6] | Enzyme activity: amount of released 4-methylumbelliferone during 5 hours of incubation [6] | Enzyme activity: amount of released 4-methylumbelliferone [7] | Enzyme activity: amount of released 4-methylumbelliferone during 5 hours of incubation [7] | Enzyme activity: amount of released 4-methylumbelliferone [8] | Enzyme activity: amount of released 4-methylumbelliferone during 5 hours of incubation [8] | Enzyme activity: amount of released 4-methylumbelliferone [9] | Enzyme activity: amount of released 4-methylumbelliferone during 5 hours of incubation [9] | Enzyme activity: amount of released 4-methylumbelliferone [10] | Enzyme activity: amount of released 4-methylumbelliferone during 5 hours of incubation [10] | Structure (SMILES) | further results
*** (2 ≦ ***) | *** (2 ≦ ***) | *** (2 ≦ ***) | *** (2 ≦ ***) | ** (1 ≦ ** 2) | ** (1 ≦ ** 2) | ** (1 ≦ ** 2) | *** (2 ≦ ***) | *** (2 ≦ ***) | *** (2 ≦ ***) | *** (2 ≦ ***) | *** (2 ≦ ***) | *** (2 ≦ ***) | *** (2 ≦ ***) | *** (2 ≦ ***) | *** (2 ≦ ***) | ** (1 ≦ ** 2) | *** (2 ≦ ***) | * (0.4 ≦ * < 1) | *** (2 ≦ ***) | CC(=O)N[C@H]1[C@H](Oc2ccc3c(C)cc(=O)oc3c2)O[C@H](CO)[C@@H](O)[C@@H]1O [substrate 3, 4-methylumbelliferyl N-acetyl-β-D-blucosaminide] | Enzyme activity: amount of released 4-methylumbelliferone [11]: *** (2 ≦ ***); Enzyme activity: amount of released 4-methylumbelliferone during 5 hours of incubation [11]: *** (2 ≦ ***); Enzyme activity: amount of released 4-methylumbelliferone [12]: ** (1 ≦ ** 2); Enzyme activity: amount of released 4-methylumbelliferone during 5 hours of incubation [12]: *** (2 ≦ ***); Enzyme activity: amount of released 4-methylumbelliferone (Eurotium sp. (AAS 36)): *** (2 ≦ ***); Enzyme activity: amount of released 4-methylumbelliferone during 5 hours of incubation (Eurotium sp. (AAS 36)): *** (2 ≦ ***); Enzyme activity: amount of released 4-methylumbelliferone [13]: ** (1 ≦ ** 2); Enzyme activity: amount of released 4-methylumbelliferone during 5 hours of incubation [13]: *** (2 ≦ ***); cleavage by human hexosaminidase (human hexosaminidase): also cleaved by human hexosaminidase; ability to degrade the substrate (all fungi tested): could be demonstrated in all fungi tested
*** (2 ≦ ***) | *** (2 ≦ ***) | ** (1 ≦ ** 2) | *** (2 ≦ ***) | * (0.4 ≦ * < 1) | * (0.4 ≦ * < 1) | 0 µmol | *** (2 ≦ ***) | ** (1 ≦ ** 2) | *** (2 ≦ ***) | ** (1 ≦ ** 2) | *** (2 ≦ ***) | ** (1 ≦ ** 2) | *** (2 ≦ ***) | ** (1 ≦ ** 2) | ** (1 ≦ ** 2) | ** (1 ≦ ** 2) | *** (2 ≦ ***) | *** (2 ≦ ***) | *** (2 ≦ ***) | CC(=O)N[C@H]1[C@H](Oc2ccc3c(C)cc(=O)oc3c2)O[C@H](CO)[C@@H](O[C@@H]2O[C@H](CO)[C@@H](O[C@@H]3O[C@H](CO)[C@@H](O)[C@H](O)[C@H]3NC(C)=O)[C@H](O)[C@H]2NC(C)=O)[C@@H]1O [substrate 4, 4-methylumbelliferyl β-D-N,N′,N″triacetylchitotrioside] | Enzyme activity: amount of released 4-methylumbelliferone [11]: ** (1 ≦ ** 2); Enzyme activity: amount of released 4-methylumbelliferone during 5 hours of incubation [11]: *** (2 ≦ ***); Enzyme activity: amount of released 4-methylumbelliferone [12]: ** (1 ≦ ** 2); Enzyme activity: amount of released 4-methylumbelliferone during 5 hours of incubation [12]: *** (2 ≦ ***); Enzyme activity: amount of released 4-methylumbelliferone (Eurotium sp. (AAS 36)): ** (1 ≦ ** 2); Enzyme activity: amount of released 4-methylumbelliferone during 5 hours of incubation (Eurotium sp. (AAS 36)): ** (1 ≦ ** 2); Enzyme activity: amount of released 4-methylumbelliferone [13]: * (0.4 ≦ * < 1); Enzyme activity: amount of released 4-methylumbelliferone during 5 hours of incubation [13]: *** (2 ≦ ***); ability to degrade the substrate (all fungi tested): could be demonstrated in all fungi tested
